This passage reports Ki results from ChEMBL document CHEMBL1130962, “Selective alpha-1a adrenergic receptor antagonists. Effects of pharmacophore regio- and stereochemistry on potency and selectivity” (Bioorg Med Chem Lett, 1998).

For one experiment, the target named is Mu-type opioid receptor (Mus musculus, UniProt P42866). The experiment can be described thus: Opioid binding affinity was evaluated using [3H]DAMGO as radioligand.
The target in experiment [1] is T1, Alpha-1B adrenergic receptor (Homo sapiens, UniProt P35368).
T1 sequence (P35368 whole entry): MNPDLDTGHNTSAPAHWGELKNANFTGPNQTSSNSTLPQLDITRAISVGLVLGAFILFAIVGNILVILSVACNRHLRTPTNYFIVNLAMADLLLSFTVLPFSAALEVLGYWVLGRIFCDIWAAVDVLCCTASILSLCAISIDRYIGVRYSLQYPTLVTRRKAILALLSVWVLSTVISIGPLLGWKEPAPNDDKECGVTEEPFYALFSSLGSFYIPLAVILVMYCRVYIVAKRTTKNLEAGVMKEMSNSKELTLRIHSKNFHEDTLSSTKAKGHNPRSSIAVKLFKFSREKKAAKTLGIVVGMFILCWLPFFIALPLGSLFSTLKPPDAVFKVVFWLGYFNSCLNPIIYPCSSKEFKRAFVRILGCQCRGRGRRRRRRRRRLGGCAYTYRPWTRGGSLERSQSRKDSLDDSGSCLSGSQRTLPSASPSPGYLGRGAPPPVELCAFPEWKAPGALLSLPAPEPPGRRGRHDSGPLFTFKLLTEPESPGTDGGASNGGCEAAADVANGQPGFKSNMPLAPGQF
The experiment can be described thus: Binding affinity against human Alpha-1b adrenergic receptor was evaluated by cloned receptor binding assay.

The target in experiment [2] is T2, Alpha-1D adrenergic receptor (Homo sapiens, UniProt P25100).
T2 sequence (P25100 whole entry): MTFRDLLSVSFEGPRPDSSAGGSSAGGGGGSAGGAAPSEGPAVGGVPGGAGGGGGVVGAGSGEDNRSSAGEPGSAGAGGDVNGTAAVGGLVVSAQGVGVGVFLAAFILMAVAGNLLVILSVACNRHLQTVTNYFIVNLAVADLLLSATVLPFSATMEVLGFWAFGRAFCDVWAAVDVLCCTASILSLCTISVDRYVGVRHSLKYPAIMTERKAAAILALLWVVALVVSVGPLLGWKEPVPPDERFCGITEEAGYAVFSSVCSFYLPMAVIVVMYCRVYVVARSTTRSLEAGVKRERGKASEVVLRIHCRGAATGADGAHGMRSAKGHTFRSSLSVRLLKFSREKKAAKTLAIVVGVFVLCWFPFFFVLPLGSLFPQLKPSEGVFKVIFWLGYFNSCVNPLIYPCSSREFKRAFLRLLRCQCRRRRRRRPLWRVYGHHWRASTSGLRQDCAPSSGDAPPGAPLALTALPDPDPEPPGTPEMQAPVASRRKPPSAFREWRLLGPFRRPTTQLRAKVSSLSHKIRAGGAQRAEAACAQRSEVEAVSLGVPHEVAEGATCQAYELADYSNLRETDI
The experiment can be described thus: Binding affinity against human Alpha-1d adrenergic receptor was evaluated by cloned receptor binding assay.

The target in experiment [3] is T3, Alpha-1A adrenergic receptor (Homo sapiens, UniProt P35348).
T3 sequence (P35348 whole entry): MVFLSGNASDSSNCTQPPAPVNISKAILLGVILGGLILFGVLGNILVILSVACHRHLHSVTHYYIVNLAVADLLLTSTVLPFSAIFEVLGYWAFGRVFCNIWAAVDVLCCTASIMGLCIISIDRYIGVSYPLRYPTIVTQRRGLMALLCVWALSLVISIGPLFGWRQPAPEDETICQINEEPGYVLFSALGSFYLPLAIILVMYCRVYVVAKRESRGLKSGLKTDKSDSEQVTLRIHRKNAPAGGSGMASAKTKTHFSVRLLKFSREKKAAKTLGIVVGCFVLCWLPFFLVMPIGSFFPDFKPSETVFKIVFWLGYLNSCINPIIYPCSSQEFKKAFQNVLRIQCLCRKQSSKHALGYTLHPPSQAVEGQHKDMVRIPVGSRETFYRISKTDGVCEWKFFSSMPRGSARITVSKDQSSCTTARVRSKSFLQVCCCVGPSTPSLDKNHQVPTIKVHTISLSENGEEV
Description: Binding affinity against human Alpha-1a adrenergic receptor was evaluated by cloned receptor binding assay.

A value given as a limit tells only on which side of the number the result lay.

Chain of Mu-type opioid receptor (P42866 whole entry): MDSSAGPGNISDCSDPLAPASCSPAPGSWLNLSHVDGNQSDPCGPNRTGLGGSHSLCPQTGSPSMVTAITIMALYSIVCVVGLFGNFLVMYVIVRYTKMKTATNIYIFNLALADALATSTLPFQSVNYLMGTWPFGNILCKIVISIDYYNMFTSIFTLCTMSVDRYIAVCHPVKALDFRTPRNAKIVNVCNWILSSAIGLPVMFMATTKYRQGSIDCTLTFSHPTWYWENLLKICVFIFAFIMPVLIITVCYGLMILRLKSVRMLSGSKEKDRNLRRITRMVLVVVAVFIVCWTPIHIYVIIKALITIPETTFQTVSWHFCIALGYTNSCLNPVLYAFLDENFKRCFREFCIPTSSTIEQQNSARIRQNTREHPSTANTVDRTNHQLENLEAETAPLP

Consider `CCOC(=O)C1CNCCC1c1ccccc1` (racemic), for which the inhibition constant Ki (in general, a measure of affinity in units of concentration, obtained from inhibition or displacement) on Mu-type opioid receptor turned out to be 24000 nM.
In the case of `CCOC(=O)[C@H]1CN(CCCCN2C(=O)c3cc(Cl)ccc3S2(=O)=O)CC[C@@H]1c1ccccc1` (racemic), the Ki in experiment [1] stood at 1400 nM; in experiment [2], 320 nM; in experiment [3] it was 100 nM.
Taken in the same sequence, the figures for `CCOC(=O)[C@@H]1CN(CCCCN2C(=O)c3cc(Cl)ccc3S2(=O)=O)CC[C@@H]1c1ccccc1` were 170 nM, 480 nM and 0.51 nM.
Take `O=C1c2ccccc2S(=O)(=O)N1CCCCN1CCN(c2ncccn2)CC1` [IPSAPIRONE]: the Ki amounted to 220 nM in experiment [1], 46 nM in experiment [2] and 87 nM in experiment [3].
Turning to `COC(=O)C1(c2ccccc2)CCN(CCCCN2C(=O)c3cc(Cl)ccc3S2(=O)=O)CC1`, the Ki in experiment [1] worked out at 2200 nM; in experiment [2], 2000 nM; in experiment [3], 44 nM.
`CCOC(=O)[C@@H]1CNCC[C@@H]1c1ccccc1` registered a Ki on Mu-type opioid receptor of 7600 nM.
The same measure, in the same setting: next, `CCOC(=O)[C@H]1CNCC[C@H]1c1ccccc1`: 12000 nM.
As to `CCOC(=O)C1CN(CCCCN2C(=O)c3cc(Cl)ccc3S2(=O)=O)CCC1c1ccccc1` (racemic), the Ki in experiment [1] worked out at 940 nM; in experiment [2] it was 1800 nM; in experiment [3] it was 3 nM.
The matching figures for `CCOC(=O)[C@H]1CN(CCCCN2C(=O)c3cc(Cl)ccc3S2(=O)=O)CC[C@H]1c1ccccc1`: more than 2000 nM, 1100 nM and 98 nM.
